Assay results reported in PMC8839585, “Development of a Real-Time Pectic Oligosaccharide-Detecting Biosensor Using the Rapid and Flexible Computational Identification of Non-Disruptive Conjugation Sites (CINC) Biosensor Design Platform” (Sensors (Basel, Switzerland), 2022).

Columns and labels:
TogB [1] = target: T1, TogB (Yersinia enterocolitica, UniProt A0ACH1C7V4, D363C); assay: stopped-flow fluorescence titration of MDCC-labelled purified protein; format: binding
T1 construct: gene yesO; TogB without signal secretion peptide, D363C conjugated to MDCC
T1 sequence (A0ACH1C7V4 27-430 D363C): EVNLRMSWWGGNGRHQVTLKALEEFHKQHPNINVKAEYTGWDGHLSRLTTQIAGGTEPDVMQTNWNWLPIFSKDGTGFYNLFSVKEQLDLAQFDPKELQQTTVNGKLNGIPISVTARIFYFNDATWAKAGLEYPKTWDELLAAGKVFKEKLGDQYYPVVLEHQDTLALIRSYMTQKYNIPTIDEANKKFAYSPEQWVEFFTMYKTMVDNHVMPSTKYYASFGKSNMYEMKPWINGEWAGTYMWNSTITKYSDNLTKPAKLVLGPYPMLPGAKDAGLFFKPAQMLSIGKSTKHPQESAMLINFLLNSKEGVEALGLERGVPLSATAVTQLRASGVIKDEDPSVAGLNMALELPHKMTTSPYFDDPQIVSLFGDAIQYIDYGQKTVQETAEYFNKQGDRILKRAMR

TogB [2] = target: T1, TogB; assay: equilibrium fluorescence change of MDCC-labelled purified protein at […] ligand (n = […]); format: binding

In the case of O=C(O)[C@H]1O[C@H](O[C@@H]2[C@H](O)[C@@H](O)C(O)O[C@@H]2C(=O)O)[C@H](O)[C@@H](O)[C@H]1O (stereo partly drawn) [digalUA, digalacturonic acid], the Kd (TogB [1]) is reported as 6 ± 1 µM.

O=C(O)[C@H]1O[C@H](O[C@@H]2[C@H](O)[C@@H](O)[C@@H](O[C@@H]3[C@H](O)[C@@H](O)C(O)O[C@@H]3C(=O)O)O[C@@H]2C(=O)O)[C@H](O)[C@@H](O)[C@H]1O (stereo partly drawn) [trigalUA, trigalacturonic acid] was tested, and the fluorescence change (TogB [2]) was −44%.

O=C(O)C1=C[C@H](O)[C@@H](O)[C@@H](O[C@@H]2[C@H](O)[C@@H](O)C(O)O[C@@H]2C(=O)O)O1 (stereo partly drawn) [unsatdigalUA, 4,5-unsaturated digalacturonic acid] gave a Kd (TogB [1]) of 1.3 ± 0.5 µM.
